Assay results taken from PubChem BioAssay (NCI).
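Protocol summary: plate cells (96-well), add compound at 5 concentrations, incubate 48 h, interpolate endpoints linearly. The concentration for 50% growth inhibition is given as GI50. TGI: total growth inhibition.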

Legend:
Test in all cases: growth of human tumour cells (NCI), 48 h
786-0 renal = system: 786-0 renal
A498 renal = system: A498 renal
A549 NSCLC = system: A549 NSCLC
ACHN renal = system: ACHN renal
BT-549 breast = system: BT-549 breast
CAKI-1 renal = system: CAKI-1 renal
CCRF-CEM leukemia = system: CCRF-CEM leukemia
COLO 205 colon = system: COLO 205 colon
DU-145 prostate = system: DU-145 prostate
EKVX NSCLC = system: EKVX NSCLC
HCC-2998 colon = system: HCC-2998 colon
HCT-116 colon = system: HCT-116 colon
HCT-15 colon = system: HCT-15 colon
HL-60(TB) leukemia = system: HL-60(TB) leukemia
HOP-62 NSCLC = system: HOP-62 NSCLC
HOP-92 NSCLC = system: HOP-92 NSCLC
HS 578T breast = system: HS 578T breast
HT29 colon = system: HT29 colon
IGROV1 ovarian = system: IGROV1 ovarian
K-562 leukemia = system: K-562 leukemia
KM12 colon = system: KM12 colon
LOX IMVI melanoma = system: LOX IMVI melanoma
M14 melanoma = system: M14 melanoma
MALME-3M melanoma = system: MALME-3M melanoma
MCF7 breast = system: MCF7 breast
MDA-MB-231 breast = system: MDA-MB-231 breast
MDA-MB-435 = system: MDA-MB-435
MOLT-4 leukemia = system: MOLT-4 leukemia
NCI-H226 lung = system: NCI-H226 lung
NCI-H23 lung = system: NCI-H23 lung
NCI-H460 lung = system: NCI-H460 lung
NCI-H522 lung = system: NCI-H522 lung
NCI/ADR-RES ovarian = system: NCI/ADR-RES ovarian
OVCAR-3 ovarian = system: OVCAR-3 ovarian
OVCAR-4 ovarian = system: OVCAR-4 ovarian
OVCAR-5 ovarian = system: OVCAR-5 ovarian
OVCAR-8 ovarian = system: OVCAR-8 ovarian
PC-3 prostate = system: PC-3 prostate
RXF 393 renal = system: RXF 393 renal
SF-268 CNS = system: SF-268 CNS
SF-295 CNS = system: SF-295 CNS
SF-539 CNS = system: SF-539 CNS
SK-MEL-2 melanoma = system: SK-MEL-2 melanoma
SK-MEL-28 melanoma = system: SK-MEL-28 melanoma
SK-MEL-5 melanoma = system: SK-MEL-5 melanoma
SK-OV-3 ovarian = system: SK-OV-3 ovarian
SN12C renal = system: SN12C renal
SNB-19 CNS = system: SNB-19 CNS
SNB-75 CNS = system: SNB-75 CNS
SR leukemia = system: SR leukemia
SW-620 colon = system: SW-620 colon
T-47D breast = system: T-47D breast
TK-10 renal = system: TK-10 renal
U251 CNS = system: U251 CNS
UACC-257 melanoma = system: UACC-257 melanoma
UACC-62 melanoma = system: UACC-62 melanoma
UO-31 renal = system: UO-31 renal

COc1ccc([C@H]2c3[nH]c4ccccc4c3C[C@H]3C(=O)N(CCCCCCC(=O)NO)CC(=O)N23)cc1
GI50 (786-0 renal): 11 µM
TGI (786-0 renal): > 33.3 µM
GI50 (A498 renal): 2.91 µM
TGI (A498 renal): 9.55 µM
GI50 (A549 NSCLC): 5.28 µM
TGI (A549 NSCLC): > 33.3 µM
GI50 (ACHN renal): 1.92 µM
TGI (ACHN renal): 12.8 µM
GI50 (BT-549 breast): 10.9 µM
TGI (BT-549 breast): > 33.3 µM
GI50 (CAKI-1 renal): 1.68 µM
TGI (CAKI-1 renal): 13.9 µM
GI50 (CCRF-CEM leukemia): 1.48 µM
TGI (CCRF-CEM leukemia): > 33.3 µM
GI50 (COLO 205 colon): 2.04 µM
TGI (COLO 205 colon): 15 µM
GI50 (DU-145 prostate): 1.83 µM
TGI (DU-145 prostate): > 33.3 µM
GI50 (EKVX NSCLC): 13.4 µM
TGI (EKVX NSCLC): > 33.3 µM
GI50 (HCC-2998 colon): 1.15 µM
TGI (HCC-2998 colon): 5.34 µM
GI50 (HCT-116 colon): 1.07 µM
TGI (HCT-116 colon): > 33.3 µM
GI50 (HCT-15 colon): 9.05 µM
TGI (HCT-15 colon): > 33.3 µM
GI50 (HL-60(TB) leukemia): 1.19 µM
TGI (HL-60(TB) leukemia): > 33.3 µM
GI50 (HOP-62 NSCLC): 2.45 µM
TGI (HOP-62 NSCLC): > 33.3 µM
GI50 (HOP-92 NSCLC): 1.38 µM
TGI (HOP-92 NSCLC): 24.2 µM
GI50 (HS 578T breast): 1.34 µM
TGI (HS 578T breast): > 33.3 µM
GI50 (HT29 colon): 3.73 µM
TGI (HT29 colon): > 33.3 µM
GI50 (IGROV1 ovarian): 2.32 µM
TGI (IGROV1 ovarian): > 33.3 µM
GI50 (K-562 leukemia): 0.895 µM
TGI (K-562 leukemia): > 33.3 µM
GI50 (KM12 colon): 2.73 µM
TGI (KM12 colon): > 33.3 µM
GI50 (LOX IMVI melanoma): 1.54 µM
TGI (LOX IMVI melanoma): 5.91 µM
GI50 (M14 melanoma): 1.75 µM
TGI (M14 melanoma): > 33.3 µM
GI50 (MALME-3M melanoma): 0.806 µM
TGI (MALME-3M melanoma): > 33.3 µM
GI50 (MCF7 breast): 1.78 µM
TGI (MCF7 breast): > 33.3 µM
GI50 (MDA-MB-231 breast): 2.27 µM
TGI (MDA-MB-231 breast): > 33.3 µM
GI50 (MDA-MB-435): 3.32 µM
TGI (MDA-MB-435): 15.1 µM
GI50 (MOLT-4 leukemia): 1.11 µM
TGI (MOLT-4 leukemia): > 33.3 µM
GI50 (NCI-H226 lung): 6.26 µM
TGI (NCI-H226 lung): > 33.3 µM
GI50 (NCI-H23 lung): 1.96 µM
TGI (NCI-H23 lung): 28.7 µM
GI50 (NCI-H460 lung): 2.76 µM
TGI (NCI-H460 lung): > 33.3 µM
GI50 (NCI-H522 lung): 1.4 µM
TGI (NCI-H522 lung): > 33.3 µM
GI50 (NCI/ADR-RES ovarian): 4.26 µM
TGI (NCI/ADR-RES ovarian): > 33.3 µM
GI50 (OVCAR-3 ovarian): 1.88 µM
TGI (OVCAR-3 ovarian): 17.4 µM
GI50 (OVCAR-4 ovarian): 12.4 µM
TGI (OVCAR-4 ovarian): > 33.3 µM
GI50 (OVCAR-5 ovarian): 1.49 µM
TGI (OVCAR-5 ovarian): > 33.3 µM
GI50 (OVCAR-8 ovarian): 1.33 µM
TGI (OVCAR-8 ovarian): > 33.3 µM
GI50 (PC-3 prostate): 2.42 µM
TGI (PC-3 prostate): > 33.3 µM
GI50 (RXF 393 renal): 1.33 µM
TGI (RXF 393 renal): 6.12 µM
GI50 (SF-268 CNS): 7.7 µM
TGI (SF-268 CNS): > 33.3 µM
GI50 (SF-295 CNS): 1.91 µM
TGI (SF-295 CNS): 12.4 µM
GI50 (SF-539 CNS): 2.38 µM
TGI (SF-539 CNS): > 33.3 µM
GI50 (SK-MEL-2 melanoma): 2.79 µM
TGI (SK-MEL-2 melanoma): > 33.3 µM
GI50 (SK-MEL-28 melanoma): 1.29 µM
TGI (SK-MEL-28 melanoma): > 33.3 µM
GI50 (SK-MEL-5 melanoma): 1.89 µM
TGI (SK-MEL-5 melanoma): 6.89 µM
GI50 (SK-OV-3 ovarian): 3.02 µM
TGI (SK-OV-3 ovarian): > 33.3 µM
GI50 (SN12C renal): 4.19 µM
TGI (SN12C renal): > 33.3 µM
GI50 (SNB-19 CNS): 4.34 µM
TGI (SNB-19 CNS): > 33.3 µM
GI50 (SNB-75 CNS): 1.12 µM
TGI (SNB-75 CNS): > 33.3 µM
GI50 (SR leukemia): 1.46 µM
TGI (SR leukemia): > 33.3 µM
GI50 (SW-620 colon): 1.03 µM
TGI (SW-620 colon): > 33.3 µM
GI50 (T-47D breast): 0.952 µM
TGI (T-47D breast): 25.6 µM
GI50 (TK-10 renal): 2.86 µM
TGI (TK-10 renal): 32.7 µM
GI50 (U251 CNS): 1.61 µM
TGI (U251 CNS): > 33.3 µM
GI50 (UACC-257 melanoma): 1.12 µM
TGI (UACC-257 melanoma): > 33.3 µM
GI50 (UACC-62 melanoma): 0.705 µM
TGI (UACC-62 melanoma): 3.97 µM
GI50 (UO-31 renal): 1.47 µM
TGI (UO-31 renal): > 33.3 µM
